Laboratory results taken from ChEMBL document CHEMBL4602695, “Discovery and SARs of 5-Chloro-N4-phenyl-N2-(pyridin-2-yl)pyrimidine-2,4-diamine Derivatives as Oral Available and Dual CDK 6 and 9 Inhibitors with Potent Antitumor Activity” (J Med Chem, 2020).

How the values were obtained:
MDA-MB-231 [1] = experiment: Induction of apoptosis in human MDA-MB-231 cells assessed as necrotic cells at 8 uM measured after 48 hrs by Annexin V-FITC/propidium iodide staining based flow cytometry (0.498%); type: functional
[2] = Stability in mouse hepatocytes assessed as parent compound remaining after 120 mins by LC-MS/MS analysis; type: ADME, cell-based, Hepatocyte; settings: read-out: Stability
[3] = Cytotoxicity against human L02 cells assessed as inhibition of cell proliferation measured after 48 hrs by CCK8 assay; type: cell-based
CDK6/cyclin D3 = CDK6/cyclin D3 (Homo sapiens, UniProt Q00534); parameters: species or system Sf9
[4] = Apparent permeability in human Caco2 cells measured after 90 mins by LC-MS/MS analysis; type: ADME, cell-based; settings: Caco-2
CDK9/Cyclin K = CDK9/Cyclin K (Homo sapiens, UniProt P50750); experiment: biochemical
MDA-MB-231 [5] = experiment: Antiproliferative activity against human MDA-MB-231 cells assessed as inhibition of cell proliferation measured after 48 hrs by CCK8 assay; type: functional, cell-based; settings: MDA-MB-231, 48 h
MDA-MB-231 [6] = experiment: Induction of apoptosis in human MDA-MB-231 cells assessed as necrotic cells at 12 uM measured after 48 hrs by Annexin V-FITC/propidium iodide staining based flow cytometry (0.498%); type: functional
[7] = Toxicity in ICR mouse assessed as toxic reaction at 500 mg/kg, po administered as single dose measured for 7 days; type: organism-based; settings: in vivo, 168 h
MDA-MB-231 [8] = experiment: Cell cycle arrest in human MDA-MB-231 cells assessed as accumulation at G2/M phase at 4 uM measured after 48 hrs by propidium iodide staining based flow cytometry (reference value: 15.9%); type: functional
MDA-MB-231 [9] = experiment: Cell cycle arrest in human MDA-MB-231 cells assessed as accumulation at G2/M phase at 8 uM measured after 48 hrs by propidium iodide staining based flow cytometry (reference value: 15.9%); type: functional
[10] = Octanol-water partition coefficient, log P of the compound by HPLC-based shake flask method; type: physicochemical
MDA-MB-231 [11] = experiment: Induction of apoptosis in human MDA-MB-231 cells assessed as viable cells at 8 uM measured after 48 hrs by Annexin V-FITC/propidium iodide staining based flow cytometry (95.8%); type: functional; settings: MDA-MB-231, 48 h, read-out: Activity

Sequence of CDK6/cyclin D3 (P30281 whole entry): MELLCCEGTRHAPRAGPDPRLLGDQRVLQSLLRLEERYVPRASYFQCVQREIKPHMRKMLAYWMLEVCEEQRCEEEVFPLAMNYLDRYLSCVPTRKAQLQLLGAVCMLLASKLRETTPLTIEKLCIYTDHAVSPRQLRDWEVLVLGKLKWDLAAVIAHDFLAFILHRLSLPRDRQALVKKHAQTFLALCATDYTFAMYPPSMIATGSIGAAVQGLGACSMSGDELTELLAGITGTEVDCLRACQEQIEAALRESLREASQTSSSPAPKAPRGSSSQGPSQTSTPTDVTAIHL
Sequence of CDK6/cyclin D3 (Q00534 whole entry): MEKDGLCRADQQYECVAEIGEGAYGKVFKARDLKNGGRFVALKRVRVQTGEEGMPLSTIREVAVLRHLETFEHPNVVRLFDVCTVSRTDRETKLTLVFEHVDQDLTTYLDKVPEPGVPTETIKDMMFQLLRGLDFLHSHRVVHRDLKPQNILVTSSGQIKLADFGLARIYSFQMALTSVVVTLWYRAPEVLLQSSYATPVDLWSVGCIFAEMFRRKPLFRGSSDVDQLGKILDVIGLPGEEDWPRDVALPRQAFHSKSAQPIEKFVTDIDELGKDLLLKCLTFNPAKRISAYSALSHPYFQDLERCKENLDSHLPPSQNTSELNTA
Sequence of CDK9/Cyclin K (P50750 whole entry): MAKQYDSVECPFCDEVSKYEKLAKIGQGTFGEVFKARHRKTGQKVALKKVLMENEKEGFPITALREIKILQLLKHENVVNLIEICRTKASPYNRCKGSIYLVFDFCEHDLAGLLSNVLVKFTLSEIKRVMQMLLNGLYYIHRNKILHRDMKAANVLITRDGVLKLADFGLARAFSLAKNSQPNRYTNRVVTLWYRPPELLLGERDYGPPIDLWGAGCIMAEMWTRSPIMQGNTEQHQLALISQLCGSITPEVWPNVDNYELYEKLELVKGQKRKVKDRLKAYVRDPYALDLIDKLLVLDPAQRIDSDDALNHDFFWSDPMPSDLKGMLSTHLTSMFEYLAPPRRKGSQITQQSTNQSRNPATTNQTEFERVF
Sequence of CDK9/Cyclin K (O75909 whole entry, further chain): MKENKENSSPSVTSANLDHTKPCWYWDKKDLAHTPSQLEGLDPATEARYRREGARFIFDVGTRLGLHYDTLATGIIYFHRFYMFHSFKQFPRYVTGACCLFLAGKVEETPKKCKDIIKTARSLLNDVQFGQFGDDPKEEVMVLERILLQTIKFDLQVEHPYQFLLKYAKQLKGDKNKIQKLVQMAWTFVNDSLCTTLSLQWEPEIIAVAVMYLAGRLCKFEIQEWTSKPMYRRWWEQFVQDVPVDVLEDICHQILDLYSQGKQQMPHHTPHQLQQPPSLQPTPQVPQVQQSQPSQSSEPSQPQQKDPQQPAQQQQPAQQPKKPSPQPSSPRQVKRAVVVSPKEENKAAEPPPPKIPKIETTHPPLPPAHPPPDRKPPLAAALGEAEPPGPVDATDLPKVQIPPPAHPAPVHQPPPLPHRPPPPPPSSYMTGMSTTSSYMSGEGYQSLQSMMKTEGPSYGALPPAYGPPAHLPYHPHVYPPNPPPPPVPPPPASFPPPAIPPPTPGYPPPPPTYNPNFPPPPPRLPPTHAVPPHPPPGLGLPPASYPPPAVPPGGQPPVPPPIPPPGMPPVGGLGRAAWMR

SMILES: CC(=O)Nc1cccc(Nc2nc(Nc3ccc(N4CCN(C)CC4)cn3)ncc2Cl)c1
- Activity (MDA-MB-231 [1]): 0.766%
- remaining at 2 h [2]: 12%
- GI50 at 48 h [3]: > 100000 nM
- IC50 (CDK6/cyclin D3): 40.5 nM
- Papp at 1.5 h [4]: 1.7 ×10⁻⁶ cm/s
- IC50 (CDK9/Cyclin K): 39.5 nM
- IC50 (MDA-MB-231 [5]): 4010 to 8080 nM
- Activity (MDA-MB-231 [6]): 2.24%
- Activity [7]: Non-Toxic
- Activity (MDA-MB-231 [8]): 9.18%
- Activity (MDA-MB-231 [9]): 8.13%
- logP [10]: 1.23
- viability at 8 µM (MDA-MB-231 [11]): 87.5%
